Assay results: ChEMBL document CHEMBL1128380, “Antimalarial activity of novel ring-contracted artemisinin derivatives” (1995)

Tests used:
Format in all cases: functional
[1] = tested on: Mus musculus; assay: Antimalarial activity was determined by blood schizonticidal activity in mice (Mus musculus) infected with Plasmodium berghei K173 at 5 (mg/kg x5) subcutaneous dosage; Cured/treated = 4/6 on day 7
[2] = tested on: Mus musculus; assay: Antimalarial activity was determined by blood schizonticidal activity in mice (Mus musculus) infected with Plasmodium berghei K173 at 10 (mg/kgx5) subcutaneous dosage; Cured/treated = 0/6 on day 7
[3] = tested on: Mus musculus; assay: Antimalarial activity was determined by Blood schizonticidal activity in mice (Mus musculus) infected with Plasmodium berghei K173 at 25 (mg/kgx5) subcutaneous dosage; Cured/treated = 4/4
[4] = tested on: Mus musculus; assay: Antimalarial activity was determined by Blood schizonticidal activity in mice (Mus musculus) infected with Plasmodium berghei NS at 5 (mg/kg x5) subcutaneous dosage; Cured/treated = 10/10
[5] = tested on: Mus musculus; assay: Antimalarial activity was determined by Blood schizonticidal activity in mice (Mus musculus) infected with Plasmodium berghei K173 at 2.5 (mg/kgx5) subcutaneous dosage; Cured/treated = 0/6 on day 7
[6] = tested on: Mus musculus; assay: Antimalarial activity was determined by blood schizonticidal activity in mice (Mus musculus) infected with Plasmodium berghei K173 at 25 (mg/kgx5) peroral dosage; Cured/treated = 0/6
[7] = tested on: Mus musculus; assay: Antimalarial activity was determined by Blood schizonticidal activity in mice (Mus musculus) infected with Plasmodium berghei NS at 7.5 (mg/kg x5) peroral dosage; Cured/treated = 8/8
[8] = tested on: Mus musculus; assay: Antimalarial activity was determined by Blood schizonticidal activity in mice (Mus musculus) infected with Plasmodium berghei K173 at 20 (mg/kg x5) peroral dosage; Cured/treated = 4/12 on day 7
[9] = tested on: Mus musculus; assay: Antimalarial activity was determined by Blood schizonticidal activity in mice (Mus musculus) infected with Plasmodium berghei NS at 2.5 (mg/kgx5) subcutaneous dosage; Cured/treated = 11/14
[10] = tested on: Mus musculus; assay: Antimalarial activity was determined by Blood schizonticidal activity in mice (Mus musculus) infected with Plasmodium berghei K173 at 1.25 (mg/kgx5) subcutaneous dosage; Cured/treated = 30/30 on day 7
[11] = tested on: Mus musculus; assay: Antimalarial activity was determined by Blood schizonticidal activity in mice (Mus musculus) infected with Plasmodium berghei NS at 25 (mg/kgx5) peroral dosage; Cured/treated = 0/6
[12] = tested on: Mus musculus; assay: Antimalarial activity was determined by Blood schizonticidal activity in mice (Mus musculus) infected with Plasmodium berghei K173 at 0.625 (mg/kg x5) subcutaneous dosage; Cured/treated = 14/19 on day 7
[13] = tested on: Mus musculus; assay: Antimalarial activity was determined by blood schizonticidal activity in mice (Mus musculus) infected with Plasmodium berghei NS at 5 (mg/kg x5) subcutaneous dosage; Cured/treated = 19/20 on day 7
[14] = tested on: Mus musculus; assay: Antimalarial activity was determined by blood schizonticidal activity in mice (Mus musculus) infected with Plasmodium berghei K173 at 10 (mg/kgx5) peroral dosage; Cured/treated = 0/6 on day 7
[15] = tested on: Mus musculus; assay: Antimalarial activity was determined by Blood schizonticidal activity in mice (Mus musculus) infected with Plasmodium berghei K173 at 25 (mg/kgx5) peroral dosage; Cured/treated = 10/12 on day 7
[16] = tested on: Mus musculus; assay: Antimalarial activity was determined by Blood schizonticidal activity in mice (Mus musculus) infected with Plasmodium berghei K173 at 0.625 (mg/kg x5) subcutaneous dosage; Cured/treated = 6/6 on day 7
[17] = tested on: Mus musculus; assay: Antimalarial activity was determined by blood schizonticidal activity in mice (Mus musculus) infected with Plasmodium berghei K173 at 25 (mg/kgx5) peroral dosage; Cured/treated = 6/6 on day 7
[18] = tested on: Mus musculus; assay: Antimalarial activity was determined by Blood schizonticidal activity in mice (Mus musculus) infected with Plasmodium berghei NS at 25 (mg/kgx5) peroral dosage; Cured/treated = 6/6
[19] = tested on: Mus musculus; assay: Antimalarial activity was determined by blood schizonticidal activity in mice (Mus musculus) infected with Plasmodium berghei NS at 12.5 (mg/kg x5) peroral dosage; Cured/treated = 2/6
[20] = tested on: Mus musculus; assay: Antimalarial activity was determined by Blood schizonticidal activity in mice (Mus musculus) infected with Plasmodium berghei K173 at 12.5 (mg/kg x5) peroral dosage; Cured/treated = 3/6 on day 7
[21] = tested on: Mus musculus; assay: Antimalarial activity was determined by Blood schizonticidal activity in mice (Mus musculus) infected with Plasmodium berghei NS at 2.5 (mg/kgx5) subcutaneous dosage; Cured/treated = 6/6
[22] = tested on: Mus musculus; assay: Antimalarial activity was determined by blood schizonticidal activity in mice (Mus musculus) infected with Plasmodium berghei NS at 25 (mg/kgx5) peroral dosage; Cured/treated = 7/12 on day 7
[23] = tested on: Mus musculus; assay: Antimalarial activity was determined by Blood schizonticidal activity in mice (Mus musculus) infected with Plasmodium berghei K173 at 20 (mg/kg x5) peroral dosage; Cured/treated = 34/34
[24] = tested on: Mus musculus; assay: Antimalarial activity was determined by Blood schizonticidal activity in mice (Mus musculus) infected with Plasmodium berghei K173 at 2.5 (mg/kgx5) subcutaneous dosage; Cured/treated = 36/36
[25] = tested on: Mus musculus; assay: Antimalarial activity was determined by blood schizonticidal activity in mice (Mus musculus) infected with Plasmodium berghei NS at 5 (mg/kg x5) subcutaneous dosage; Cured/treated = 16/18 on day 7
[26] = tested on: Mus musculus; assay: Antimalarial activity was determined by blood schizonticidal activity in mice (Mus musculus) infected with Plasmodium berghei K173 at 1.25 (mg/kgx5) subcutaneous dosage; Cured/treated = 23/35 on day 7

`C[C@@H]1CC[C@@H]2[C@]34OO[C@@](C)(CCC13)O[C@H]4O[C@]2(C)C(=O)NCc1ccc(C(F)(F)F)cc1` (stereo partly specified) was tested, and the Cured/treated [1] was 4.

Compound `C[C@@H]1CCC2[C@]34OOC(C)(CCC13)O[C@H]4O[C@]2(C)C=O` (single isomer, unassigned) has a Cured/treated [2] of 0 and a Cured/treated [3] of 4.

Work on `C=CCOC[C@@]1(C)O[C@@H]2OC3(C)CCC4[C@H](C)CC[C@@H]1[C@]42OO3` (single isomer, unassigned) yielded a Cured/treated [4] of 10, a Cured/treated [5] of 0 and a Cured/treated [6] of 0.

Work on `C[C@H]1[C@@H](OC[C@]2(C)OC3OC4(C)CCC5[C@@H](C)CCC2[C@]35OO4)O[C@@H]2OC3(C)CCC4[C@H](C)CC[C@@H]1[C@]42OO3` (single isomer, unassigned) yielded a Cured/treated [7] of 8, a Cured/treated [8] of 4 and a Cured/treated [9] of 11. It also gave a Cured/treated [10] of 30, a Cured/treated [11] of 0 and a Cured/treated [12] of 14. The Cured/treated [13] was 19, the Cured/treated [14] was 0 and the Cured/treated [15] was 10.

For `C[C@H]1[C@H](OC[C@]2(C)OC3OC4(C)CCC5[C@@H](C)CCC2[C@]35OO4)O[C@@H]2OC3(C)CCC4[C@H](C)CC[C@@H]1[C@]42OO3` (single isomer, unassigned), the Cured/treated [16] was 6, the Cured/treated [17] was 6 and the Cured/treated [18] was 6. For the same compound, the Cured/treated [19] was 2, the Cured/treated [20] was 3 and the Cured/treated [21] was 6.

`CCO[C@H]1O[C@@H]2O[C@@]3(C)CC[C@H]4[C@H](C)CC[C@@H]([C@H]1C)[C@@]24OO3` [ARTEMOTIL] was tested, and the Cured/treated [22] was 7, the Cured/treated [23] was 34 and the Cured/treated [24] was 36. It also gave a Cured/treated [25] of 16 and a Cured/treated [26] of 23.
